What was measured:
[1] = target: T1, Metabotropic glutamate receptor 4 (Homo sapiens, UniProt Q14833); assay: Positive allosteric modulation of human mGluR4 expressed in CHO cells co-expressing Gqi5 assessed as increase in glutamate-induced calcium flux at 30 uM preincubated for 2.5 mins followed by glutamate addition by Fluo-4-AM dye based fluorescence assay relative to PHCCC; type: functional, cell-based
[2] = target: T1, Metabotropic glutamate receptor 4; assay: Positive allosteric modulation of human mGluR4 expressed in CHO cells co-expressing Gqi5 assessed as increase in glutamate-induced calcium flux preincubated for 2.5 mins followed by glutamate addition by Fluo-4-AM dye based fluorescence assay; type: functional, cell-based
[3] = Clearance in rat liver microsomes; type: ADME, microsome
[4] = test system: MDR1 (P-gp); assay: Efflux ratio of permeability in MDCK-MDR1 cells; type: ADME, cell-based, Canis lupus familiaris; conditions: dog
[5] = Plasma concentration in rat at 10 mg/kg, po after 1 hr; type: ADME, organism-based
[6] = Fraction unbound in human plasma; type: ADME, cell-free
[7] = Brain to plasma partition coefficient, Kp of the compound in rat at 10 mg/kg, po after 1 hr; type: ADME, organism-based; conditions: brain and plasma
[8] = Unbound brain to plasma concentration ratio in rat at 10 mg/kg, po after 1 hr; type: ADME, organism-based; conditions: brain and plasma, read-out: K(p,uu,brain)
[9] = Drug uptake in rat brain at 10 mg/kg, po after 1 hr; type: ADME, organism-based; conditions: read-out: Drug uptake
[10] = target: T2, CYP1A2 (induction through the aryl hydrocarbon receptor, AhR) (Homo sapiens, UniProt P35869); assay: Activation of human AhR assessed as induction of CYP1A2 relative to control; type: ADME; conditions: read-out: FC
T2 sequence (P35869 whole entry): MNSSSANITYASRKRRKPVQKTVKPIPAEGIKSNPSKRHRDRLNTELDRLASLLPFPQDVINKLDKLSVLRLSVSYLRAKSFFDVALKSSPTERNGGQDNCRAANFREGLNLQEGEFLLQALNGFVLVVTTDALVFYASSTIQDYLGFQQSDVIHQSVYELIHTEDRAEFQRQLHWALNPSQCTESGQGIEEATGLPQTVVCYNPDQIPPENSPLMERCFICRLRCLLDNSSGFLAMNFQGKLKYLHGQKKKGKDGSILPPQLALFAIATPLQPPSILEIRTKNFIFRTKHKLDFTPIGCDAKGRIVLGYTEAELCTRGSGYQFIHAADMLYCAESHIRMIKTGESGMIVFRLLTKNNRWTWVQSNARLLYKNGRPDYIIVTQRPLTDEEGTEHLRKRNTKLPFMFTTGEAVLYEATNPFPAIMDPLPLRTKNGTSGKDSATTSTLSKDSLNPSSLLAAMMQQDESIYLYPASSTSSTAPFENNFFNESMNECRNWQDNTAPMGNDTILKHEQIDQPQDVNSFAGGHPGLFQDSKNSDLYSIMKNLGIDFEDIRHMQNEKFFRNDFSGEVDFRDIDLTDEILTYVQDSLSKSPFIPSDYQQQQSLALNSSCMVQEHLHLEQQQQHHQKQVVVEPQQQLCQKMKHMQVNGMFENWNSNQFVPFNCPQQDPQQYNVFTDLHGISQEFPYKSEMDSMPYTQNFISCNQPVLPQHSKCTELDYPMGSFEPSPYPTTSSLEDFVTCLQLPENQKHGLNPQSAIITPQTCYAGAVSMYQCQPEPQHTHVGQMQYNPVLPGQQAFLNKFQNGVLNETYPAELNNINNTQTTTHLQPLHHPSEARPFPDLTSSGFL

[11] = Fraction unbound in rat plasma; type: ADME, cell-free
[12] = target: T3, Cytochrome P450 1A2 (Homo sapiens, UniProt P05177); assay: Inhibition of CYP1A2 in human liver microsomes; type: ADME
T3 sequence (P05177 whole entry): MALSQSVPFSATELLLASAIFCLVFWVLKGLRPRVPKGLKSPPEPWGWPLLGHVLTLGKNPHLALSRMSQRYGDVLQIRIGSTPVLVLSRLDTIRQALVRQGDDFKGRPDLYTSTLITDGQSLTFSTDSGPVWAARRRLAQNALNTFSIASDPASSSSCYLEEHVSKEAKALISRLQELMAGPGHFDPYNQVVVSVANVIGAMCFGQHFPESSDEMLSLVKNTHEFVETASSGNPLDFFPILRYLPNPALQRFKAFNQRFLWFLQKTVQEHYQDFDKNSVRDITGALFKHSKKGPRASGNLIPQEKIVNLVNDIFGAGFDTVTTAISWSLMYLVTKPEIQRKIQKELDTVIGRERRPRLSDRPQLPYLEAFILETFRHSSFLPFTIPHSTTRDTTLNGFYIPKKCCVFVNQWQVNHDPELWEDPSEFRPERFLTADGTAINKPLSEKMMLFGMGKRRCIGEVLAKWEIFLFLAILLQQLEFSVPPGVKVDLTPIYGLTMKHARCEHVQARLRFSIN

T1 sequence (Q14833 whole entry): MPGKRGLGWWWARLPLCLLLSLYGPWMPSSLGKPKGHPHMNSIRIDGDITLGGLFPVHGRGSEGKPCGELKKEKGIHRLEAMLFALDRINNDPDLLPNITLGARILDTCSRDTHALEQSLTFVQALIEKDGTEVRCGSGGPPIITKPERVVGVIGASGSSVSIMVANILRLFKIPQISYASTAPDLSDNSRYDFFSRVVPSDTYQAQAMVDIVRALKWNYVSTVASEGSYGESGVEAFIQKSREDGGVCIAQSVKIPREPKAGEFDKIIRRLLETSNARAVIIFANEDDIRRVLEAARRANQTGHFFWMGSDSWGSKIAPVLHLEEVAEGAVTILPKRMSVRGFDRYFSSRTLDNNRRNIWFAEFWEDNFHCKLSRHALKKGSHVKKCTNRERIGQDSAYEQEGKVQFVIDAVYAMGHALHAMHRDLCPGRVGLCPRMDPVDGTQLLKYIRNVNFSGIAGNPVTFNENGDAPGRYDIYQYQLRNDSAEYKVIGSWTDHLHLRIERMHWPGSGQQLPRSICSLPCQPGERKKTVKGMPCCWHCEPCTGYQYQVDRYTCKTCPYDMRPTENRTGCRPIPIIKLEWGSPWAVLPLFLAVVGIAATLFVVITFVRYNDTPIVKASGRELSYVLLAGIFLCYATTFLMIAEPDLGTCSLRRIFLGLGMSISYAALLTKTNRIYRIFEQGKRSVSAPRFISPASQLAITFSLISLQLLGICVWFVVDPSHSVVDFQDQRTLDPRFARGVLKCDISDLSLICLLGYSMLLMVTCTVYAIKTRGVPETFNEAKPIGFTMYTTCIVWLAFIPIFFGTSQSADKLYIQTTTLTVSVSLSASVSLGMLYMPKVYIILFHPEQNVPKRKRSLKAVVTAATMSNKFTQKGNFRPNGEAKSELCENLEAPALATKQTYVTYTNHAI

Row | Compound | Emax [1] [%] | EC50 ([2]; read-out: EC50) [µM] | other results
1 | Cn1nc(C(=O)NC2CC(F)C2)c2ccc(Nc3n[nH]c4cccnc34)cc21 (centres undefined) | 74 | 0.794 | 
2 | Cn1nc(C2(C)CC2)c2ccc(Nc3n[nH]c4cccnc34)cc21 | 83.7 | 0.0679 | 
3 | Cc1cc(COc2nn(C)c3cc(Nc4n[nH]c5cccnc45)ccc23)on1 | 107 |  | 
4 | Cn1nc(C2CC2)c2ncc(Nc3n[nH]c4cccnc34)cc21 | 75 | 0.468 | 
5 | Cn1nc(C2CC2)c2ccc(Nc3n[nH]c4cccnc34)cc21 | 88.7 | 0.043 | CLhep predicted [3]: 21.5 mL/min/kg; efflux ratio [4]: 1.2; concentration at 1 h [5]: 787 ng/mL; fraction unbound [6]: 0.022; Kp at 1 h [7]: 1.04; Kp uu at 1 h [8]: 0.3; concentration at 1 h [9]: 816 ng/g; fold induction [10]: 2.3; fraction unbound [11]: 0.024; IC50 [12]: 0.35 µM
6 | Cc1nn(C)c2ccc(Nc3n[nH]c4cccnc34)cc12 | 105 | 0.345 | 
7 | Cn1ccc2cc(Nc3n[nH]c4cccnc34)ccc21 | 83.8 | 3.59 | 
8 | Cn1nc(C(F)(F)F)c2ccc(Nc3n[nH]c4cccnc34)cc21 | 77.5 | 0.119 | 
9 | Cn1nc(C(=O)N2CC[C@H](F)C2)c2ccc(Nc3n[nH]c4cccnc34)cc21 | 55.5 | 0.764 | 
10 | Cc1nnc2ccc(Nc3n[nH]c4cccnc34)cn12 |  |  | EC50 ([2]; cho): Not Active
11 | Cn1nc(C2(C)CC2)c2ccc(Nc3n[nH]c4nccnc34)cc21 | 94.8 | 0.0249 | 
12 | Cn1nnc2ccc(Nc3n[nH]c4cccnc34)cc21 | 72.4 | 1.43 | 
13 | Cn1nc(C(=O)N2CCC(F)(F)CC2)c2ccc(Nc3n[nH]c4cccnc34)cc21 | 89.5 | 0.498 | 
14 | Cn1ncc2ccc(Nc3n[nH]c4cccnc34)cc21 | 105 | 0.257 | CLhep predicted [3]: 10.7 mL/min/kg; fraction unbound [6]: 0.093; fold induction [10]: 154; fraction unbound [11]: 0.061; IC50 [12]: 0.11 µM
15 | Fc1ccc(Nc2n[nH]c3cccnc23)cc1Cl |  |  | CLhep predicted [3]: 12.1 mL/min/kg; fraction unbound [6]: 0.017; fraction unbound [11]: 0.028; IC50 [12]: < 0.1 µM
16 | FC(F)(F)Cn1nc(C2CC2)c2ccc(Nc3n[nH]c4cccnc34)cc21 |  |  | EC50 ([2]; cho): Not Active
17 | Cn1nc(OC2CCOCC2)c2ccc(Nc3n[nH]c4cccnc34)cc21 | 85.1 |  | 
18 | Cc1nnc2cc(Nc3n[nH]c4cccnc34)ccn12 |  |  | EC50 ([2]; cho): Not Active
19 | Cc1nn(C2CCCC2)c2ccc(Nc3n[nH]c4cccnc34)cc12 | 93.8 | 0.265 | 
20 | c1cnc2c(Nc3ccc4c(C5CC5)n[nH]c4c3)n[nH]c2c1 | 76.5 | 0.452 | CLhep predicted [3]: 30.8 mL/min/kg; fraction unbound [6]: 0.031; fold induction [10]: 13.5; fraction unbound [11]: 0.014; IC50 [12]: 0.28 µM
21 | Cn1nc(OCC2CCCCO2)c2ccc(Nc3n[nH]c4cccnc34)cc21 (centres undefined) | 100 |  | 
22 | [2H]C([2H])([2H])Cn1nc(C2CC2)c2ccc(Nc3n[nH]c4ncccc34)cc21 |  | 0.16 | 
23 | CCc1nn(C)c2cc(Nc3n[nH]c4cccnc34)ccc12 | 94.5 | 0.0379 | 
24 | Cn1cnc2ccc(Nc3n[nH]c4cccnc34)cc21 | 54.6 | > 10 | 

Row | Compound | Emax [1] [%] | EC50 ([2]; read-out: EC50) [µM] | other results
25 | CCn1nc(Cl)c2cc(Nc3n[nH]c4cccnc34)ccc21 | 67 | 0.815 | 
26 | Cn1nc(C(=O)N2CC[C@@H](F)C2)c2ccc(Nc3n[nH]c4cccnc34)cc21 | 41.9 | 0.907 | 
27 | CC(C)COc1nn(C)c2cc(Nc3n[nH]c4cccnc34)ccc12 | 86.7 |  | 
28 | Cn1ncc2cc(Nc3n[nH]c4cccnc34)ccc21 | 110 | 0.87 | CLhep predicted [3]: 40.1 mL/min/kg; fraction unbound [6]: 0.118; fold induction [10]: 28; fraction unbound [11]: 0.127; IC50 [12]: 0.53 µM
29 | CC(C)Oc1nn(C)c2cc(Nc3n[nH]c4cccnc34)ccc12 | 70.9 |  | 
30 | CCn1nc(C)c2cc(Nc3n[nH]c4cccnc34)ccc21 | 78.3 | 0.0951 | 
31 | Cc1c2ccc(Nc3n[nH]c4cccnc34)cc2nn1C1CCCC1 |  |  | EC50 ([2]; cho): Not Active
32 | CN1CCC(Oc2nn(C)c3cc(Nc4n[nH]c5cccnc45)ccc23)CC1 | 88.3 | 1.88 | 
33 | Cc1nn(CC2CCC2)c2ccc(Nc3n[nH]c4cccnc34)cc12 | 93.2 | 0.0468 | 
34 | Cn1nc(C(=O)NC2CC(F)(F)C2)c2ccc(Nc3n[nH]c4cccnc34)cc21 | 52.2 | 0.116 | 
35 | Cc1nn(C)c2cc(Nc3n[nH]c4cccnc34)ccc12 | 98 | 0.0781 | CLhep predicted [3]: 18.6 mL/min/kg; fraction unbound [6]: 0.058; fold induction [10]: 25; fraction unbound [11]: 0.089; IC50 [12]: < 0.1 µM
36 | Cn1nc(C2CC2)c2ccc(Nc3n[nH]c4nccnc34)cc21 | 101 | 0.0198 | CLhep predicted [3]: 22.4 mL/min/kg; fraction unbound [6]: 0.03; fold induction [10]: 2.3; fraction unbound [11]: 0.035; IC50 [12]: 0.48 µM
37 | Cn1nc(CC(F)(F)F)c2ccc(Nc3n[nH]c4cccnc34)cc21 | 62.7 | 0.0955 | 
38 | CCn1nc(C2CC2)c2ccc(Nc3n[nH]c4cccnc34)cc21 | 36.2 | 1.21 | Emax ([1]; tested as the 2H-labelled form): 97.4%
39 | Cn1nc(C2CC2)c2ccc(Nc3n[nH]c4ncccc34)cc21 | 94.8 | 0.0432 | CLhep predicted [3]: 16.1 mL/min/kg; fraction unbound [6]: 0.03; fold induction [10]: 2.6; fraction unbound [11]: 0.031; IC50 [12]: 2.6 µM
40 | Cn1nc(C(=O)N2CCCC2)c2ccc(Nc3n[nH]c4cccnc34)cc21 | 41.6 | 0.827 | 
41 | Cn1nc(C(=O)NC2CCC2)c2ccc(Nc3n[nH]c4cccnc34)cc21 | 70.3 | 0.653 | 
42 | Cn1nc(C2(C)CC2)c2ccc(Nc3n[nH]c4ncccc34)cc21 | 84 | 0.129 | 
43 | Cn1nc(C(=O)N2CCC(F)(F)C2)c2ccc(Nc3n[nH]c4cccnc34)cc21 | 57.8 | 0.289 | 
44 | CCn1nc(C2CC2)c2ccc(Nc3n[nH]c4ncccc34)cc21 |  |  | Emax ([1]; tested as the 2H-labelled form): 75.7%
45 | Cc1nn(C(C)C)c2cc(Nc3n[nH]c4cccnc34)ccc12 | 62 | 9.89 | 
46 | Cc1c2ccc(Nc3n[nH]c4cccnc34)cc2nn1CC1CCC1 |  |  | EC50 ([2]; cho): Not Active
47 | [2H]C([2H])([2H])Cn1nc(C2CC2)c2ccc(Nc3n[nH]c4cccnc34)cc21 |  | 0.0362 | 

Source: ChEMBL document CHEMBL4229425, “Discovery and characterization of N-(1,3-dialkyl-1H-indazol-6-yl)-1H-pyrazolo[4,3-b]pyridin-3-amine scaffold as mGlu4 positive allosteric modulators that mitigate CYP1A2 induction liability” (Bioorg Med Chem Lett, 2018)
